Results: the supplement of paper PMC10307832

Assays:
Test in all cases: relative viability (nuclei count vs DMSO), 5 days (fraction); higher = more cells survive
Apatinib + Lapatinib = compound: N#CC1(c2ccc(NC(=O)c3cccnc3NCc3ccncc3)cc2)CCCC1 [Apatinib] + CS(=O)(=O)CCNCc1ccc(-c2ccc3ncnc(Nc4ccc(OCc5cccc(F)c5)c(Cl)c4)c3c2)o1 [Lapatinib] (partner 2 µM)
Procedure, shortened: (§1)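 A single step with final 0.05% Triton X-100, 1% formaldehyde and 1 ug/ml Hoechst fixed the cells and stained nuclei 5 days after treatment. Lung cancer cell lines in 1536-well plates had been treated by pin tool the day after seeding with one drug alone or a fixed anchor-drug dose plus five library-drug doses (not always all listed) in √10 steps, and nuclei were counted on 4× images. Relative viability is the ratio of nuclei in treated wells to nuclei in vehicle wells, taken as the median of duplicate plates.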

Metformin + Foretinib = compound: CN(C)C(=N)NC(=N)N [Metformin] + COc1cc2c(Oc3ccc(NC(=O)C4(C(=O)Nc5ccc(F)cc5)CC4)cc3F)ccnc2cc1OCCCN1CCOCC1 [Foretinib] (partner 0.25 µM)
Procedure, shortened: as §1

Apatinib + OSI-027 = compound: N#CC1(c2ccc(NC(=O)c3cccnc3NCc3ccncc3)cc2)CCCC1 [Apatinib] + COc1cccc2cc(-c3nc([C@H]4CC[C@H](C(=O)O)CC4)n4ncnc(N)c34)[nH]c12 [OSI-027] (partner 0.5 µM)
Procedure, shortened: as §1

Apatinib + Pemetrexed = compound: N#CC1(c2ccc(NC(=O)c3cccnc3NCc3ccncc3)cc2)CCCC1 [Apatinib] + Nc1nc2[nH]cc(CCc3ccc(C(=O)N[C@@H](CCC(=O)O)C(=O)O)cc3)c2c(=O)[nH]1 [Pemetrexed] (partner 0.2 µM)
Procedure, shortened: as §1

Cell Line | relative viability (Apatinib + Lapatinib; first compound 0.08 µM) | relative viability (Apatinib + Lapatinib; first compound 0.253 µM) | relative viability (Apatinib + Lapatinib; first compound 0.8 µM) | relative viability (Apatinib + Lapatinib; first compound 2.53 µM) | relative viability (Apatinib + Lapatinib; first compound 8 µM) | relative viability (Metformin + Foretinib; first compound 31.62 µM) | relative viability (Metformin + Foretinib; first compound 100 µM) | relative viability (Metformin + Foretinib; first compound 316.23 µM) | relative viability (Metformin + Foretinib; first compound 1000 µM) | relative viability (Apatinib + OSI-027; first compound 0.08 µM) | relative viability (Apatinib + OSI-027; first compound 0.253 µM) | relative viability (Apatinib + OSI-027; first compound 0.8 µM) | relative viability (Apatinib + OSI-027; first compound 2.53 µM) | relative viability (Apatinib + OSI-027; first compound 8 µM) | relative viability (Apatinib + Pemetrexed; first compound 0.08 µM) | relative viability (Apatinib + Pemetrexed; first compound 0.253 µM) | relative viability (Apatinib + Pemetrexed; first compound 0.8 µM) | relative viability (Apatinib + Pemetrexed; first compound 2.53 µM) | relative viability (Apatinib + Pemetrexed; first compound 8 µM) | relative viability (Metformin + Foretinib; first compound 10 µM)
NCI-H2087 | 0.877 | 0.982 | 1.09 | 0.793 | 0.891 | 0.966 | 1.12 | 0.891 | 1.06 | 0.607 | 0.458 | 0.468 | 0.492 | 0.426 | 0.657 | 0.682 | 0.65 | 0.619 | 0.758 | –
NCI-H358 | 0.47 | 0.397 | 0.474 | 0.439 | 0.403 | 0.723 | 0.658 | 0.732 | 0.813 | 0.898 | 0.789 | 0.772 | 0.706 | 0.692 | 0.173 | 0.165 | 0.233 | 0.163 | 0.128 | 0.726
PC-14 | 0.384 | 0.29 | 0.283 | 0.277 | 0.23 | 1.08 | 0.879 | 0.932 | 1 | 0.805 | 0.956 | 0.596 | 0.748 | 0.602 | 0.142 | 0.133 | 0.124 | 0.0984 | 0.0405 | 0.795
NCI-H596 | 1.16 | 1.1 | 1.02 | 0.976 | 1.18 | 0.855 | 0.85 | 0.861 | 0.89 | 0.795 | 0.656 | 0.653 | 0.486 | 0.545 | 0.541 | 0.539 | 0.494 | 0.405 | 0.442 | 0.832
